The term MIC denotes the least concentration at which growth counts as inhibited.

Inhibition of growth and MIC data for 22 molecules are collected here from ChEMBL document CHEMBL4387762, “Multicomponent synthesis of α-acylamino and α-acyloxy amide derivatives of desmycosin and their activity against gram-negative bacteria” (2019).

Format in all cases: functional
The test system of assay [1] is Aliivibrio fischeri. Description: Antimicrobial activity against Aliivibrio fischeri DSM507 assessed as growth inhibition at 0.1 uM incubated for 24 hrs by luminescence based assay relative to control. The conditions noted are these: DSM507, 24 h, read-out: GI.
The subject of assay [2] is Aliivibrio fischeri. Briefly: Antimicrobial activity against Aliivibrio fischeri DSM507 assessed as growth inhibition at 1 uM incubated for 24 hrs by luminescence based assay relative to control. The note with it: DSM507, 24 h, read-out: GI.
For assay [3], the system named is Aliivibrio fischeri. Briefly: Antimicrobial activity against Aliivibrio fischeri DSM507 assessed as growth inhibition incubated for 24 hrs by luminescence based assay. The note with it: DSM507, 24 h.

In brackets after ≈: the same amount, converted by molar mass.

Turning to `CC[C@H]1OC(=O)C[C@@H](O)[C@H](C)[C@@H](O[C@@H]2O[C@H](C)[C@@H](O)[C@H](N(C)C)[C@H]2O)[C@@H](CC(C(=O)NC(C)(C)C)N(C(=O)c2ccccc2)c2ccccc2)C[C@@H](C)C(=O)/C=C/C(C)=C/[C@@H]1CO[C@H]1O[C@@H](C)[C@H](O)[C@H](OC)[C@@H]1OC` (mixture of isomers), the inhibition of growth at 0.1 µM in the assay on Aliivibrio fischeri [1] amounted to 22%. Also, the inhibition of growth at 1 µM in the assay on Aliivibrio fischeri [2] turned out to be 36%.
Consider `CC[C@H]1OC(=O)C[C@@H](O)[C@H](C)[C@@H](O[C@@H]2O[C@H](C)[C@@H](O)[C@H](N(C)C)[C@H]2O)[C@@H](C[C@H](C(=O)NC(C)(C)C)N(C)C(C)=O)C[C@@H](C)C(=O)/C=C/C(C)=C/[C@@H]1CO[C@H]1O[C@@H](C)[C@H](O)[C@H](OC)[C@@H]1OC`, for which the inhibition of growth at 0.1 µM in the assay on Aliivibrio fischeri [1] came to 12%. For the same molecule, the inhibition of growth at 1 µM in the assay on Aliivibrio fischeri [2] turned out to be 64%.
For `CC[C@H]1OC(=O)C[C@@H](O)[C@H](C)[C@@H](O[C@@H]2O[C@H](C)[C@@H](O)[C@H](N(C)C)[C@H]2O)[C@@H](CC(C(=O)NC2CCCCC2)N(C(=O)c2ccccc2)C(C)C)C[C@@H](C)C(=O)/C=C/C(C)=C/[C@@H]1CO[C@H]1O[C@@H](C)[C@H](O)[C@H](OC)[C@@H]1OC` (mixture of isomers), in that order: 21% and 44%.
For the molecule `CC[C@H]1OC(=O)C[C@@H](O)[C@H](C)[C@@H](O[C@@H]2O[C@H](C)[C@@H](O)[C@H](N(C)C)[C@H]2O)[C@@H](CC(C(=O)NC(C)(C)C)N(CCCCN)C(=O)c2ccccc2)C[C@@H](C)C(=O)/C=C/C(C)=C/[C@@H]1CO[C@H]1O[C@@H](C)[C@H](O)[C@H](OC)[C@@H]1OC` (mixture of isomers), in the assay with Aliivibrio fischeri [1], the inhibition of growth at 0.1 µM was found to be 6%. In addition, the inhibition of growth at 1 µM in the assay with Aliivibrio fischeri [2] was determined as 36%.
For `CCCCNC(=O)C(C[C@H]1C[C@@H](C)C(=O)/C=C/C(C)=C/[C@H](CO[C@H]2O[C@@H](C)[C@H](O)[C@H](OC)[C@@H]2OC)[C@@H](CC)OC(=O)C[C@@H](O)[C@H](C)[C@H]1O[C@@H]1O[C@H](C)[C@@H](O)[C@H](N(C)C)[C@H]1O)N(C)C(=O)CCC` (mixture of isomers), in that order: 15% and 62%.
For the molecule `CC[C@@H](C)CN(C(=O)c1ccccc1)C(C[C@H]1C[C@@H](C)C(=O)/C=C/C(C)=C/[C@H](CO[C@H]2O[C@@H](C)[C@H](O)[C@H](OC)[C@@H]2OC)[C@@H](CC)OC(=O)C[C@@H](O)[C@H](C)[C@H]1O[C@@H]1O[C@H](C)[C@@H](O)[C@H](N(C)C)[C@H]1O)C(=O)NC(C)(C)C` (some centres undefined), the inhibition of growth at 0.1 µM in the assay on Aliivibrio fischeri [1] was found to be 25%. Besides, the inhibition of growth at 1 µM in the assay on Aliivibrio fischeri [2] turned out to be 52%.
For `CCCC(=O)N(C(C)C)C(C[C@H]1C[C@@H](C)C(=O)/C=C/C(C)=C/[C@H](CO[C@H]2O[C@@H](C)[C@H](O)[C@H](OC)[C@@H]2OC)[C@@H](CC)OC(=O)C[C@@H](O)[C@H](C)[C@H]1O[C@@H]1O[C@H](C)[C@@H](O)[C@H](N(C)C)[C@H]1O)C(=O)NC(C)(C)C` (mixture of isomers), in that order: 43% and 83%.
In the case of `CC[C@H]1OC(=O)C[C@@H](O)[C@H](C)[C@@H](O[C@@H]2O[C@H](C)[C@@H](O)[C@H](N(C)C)[C@H]2O)[C@@H](CC(OC(=O)c2ccccc2)C(=O)NC(C)(C)C)C[C@@H](C)C(=O)/C=C/C(C)=C/[C@@H]1CO[C@H]1O[C@@H](C)[C@H](O)[C@H](OC)[C@@H]1OC` (mixture of isomers), the inhibition of growth at 0.1 µM in the assay with Aliivibrio fischeri [1] stood at 18%. Further, in the assay with Aliivibrio fischeri [2], the inhibition of growth at 1 µM turned out to be 52%.
`CCCC(=O)OC(C[C@H]1C[C@@H](C)C(=O)/C=C/C(C)=C/[C@H](CO[C@H]2O[C@@H](C)[C@H](O)[C@H](OC)[C@@H]2OC)[C@@H](CC)OC(=O)C[C@@H](O)[C@H](C)[C@H]1O[C@@H]1O[C@H](C)[C@@H](O)[C@H](N(C)C)[C@H]1O)C(=O)NC(C)(C)C` (some centres undefined): the inhibition of growth at 0.1 µM in the assay with Aliivibrio fischeri [1] turned out to be 58%. For the same molecule, the inhibition of growth at 1 µM in the assay on Aliivibrio fischeri [2] stood at 90%.
In the same order, the values of `CC[C@H]1OC(=O)C[C@@H](O)[C@H](C)[C@@H](O[C@@H]2O[C@H](C)[C@@H](O)[C@H](N(C)C)[C@H]2O)[C@@H](CC(C(=O)NC(C)(C)C)N(CCCCN=[N+]=[N-])C(=O)c2ccccc2)C[C@@H](C)C(=O)/C=C/C(C)=C/[C@@H]1CO[C@H]1O[C@@H](C)[C@H](O)[C@H](OC)[C@@H]1OC` (mixture of isomers) are 46% and 64%.
For `CC[C@H]1OC(=O)C[C@@H](O)[C@H](C)[C@@H](O[C@@H]2O[C@H](C)[C@@H](O)[C@H](N(C)C)[C@H]2O)[C@@H](CC(C(=O)NC(C)(C)C)N(C(=O)c2ccccc2)C(C)C)C[C@@H](C)C(=O)/C=C/C(C)=C/[C@@H]1CO[C@H]1O[C@@H](C)[C@H](O)[C@H](OC)[C@@H]1OC` (mixture of isomers), in that order: 54% and 79%.
Consider `CCCN(C(=O)c1ccccc1)C(C[C@H]1C[C@@H](C)C(=O)/C=C/C(C)=C/[C@H](CO[C@H]2O[C@@H](C)[C@H](O)[C@H](OC)[C@@H]2OC)[C@@H](CC)OC(=O)C[C@@H](O)[C@H](C)[C@H]1O[C@@H]1O[C@H](C)[C@@H](O)[C@H](N(C)C)[C@H]1O)C(=O)NC(C)(C)C` (mixture of isomers), for which the inhibition of growth at 0.1 µM in the assay on Aliivibrio fischeri [1] came out at 16%. Also, in the assay on Aliivibrio fischeri [2], the inhibition of growth at 1 µM stood at 41%.
Take `CC[C@H]1OC(=O)C[C@@H](O)[C@H](C)[C@@H](O[C@@H]2O[C@H](C)[C@@H](O)[C@H](N(C)C)[C@H]2O)[C@@H](CC(C(=O)NC(C)(C)C)N(C)C(=O)c2ccccc2)C[C@@H](C)C(=O)/C=C/C(C)=C/[C@@H]1CO[C@H]1O[C@@H](C)[C@H](O)[C@H](OC)[C@@H]1OC` (mixture of isomers): in the assay with Aliivibrio fischeri [1], the inhibition of growth at 0.1 µM was determined as 69%. Further, the inhibition of growth at 1 µM in the assay with Aliivibrio fischeri [2] worked out at 99%.
On to `CCC(=O)N(C(C)C)C(C[C@H]1C[C@@H](C)C(=O)/C=C/C(C)=C/[C@H](CO[C@H]2O[C@@H](C)[C@H](O)[C@H](OC)[C@@H]2OC)[C@@H](CC)OC(=O)C[C@@H](O)[C@H](C)[C@H]1O[C@@H]1O[C@H](C)[C@@H](O)[C@H](N(C)C)[C@H]1O)C(=O)NC(C)(C)C` (mixture of isomers), for which the inhibition of growth at 0.1 µM in the assay with Aliivibrio fischeri [1] worked out at 38%. Besides, in the assay on Aliivibrio fischeri [2], the inhibition of growth at 1 µM came to 71%.
Take `CC[C@H]1OC(=O)C[C@@H](O)[C@H](C)[C@@H](O[C@@H]2O[C@H](C)[C@@H](O)[C@H](N(C)C)[C@H]2O)[C@@H](CC(C(=O)NC(C)(C)C)N(CC)C(=O)c2ccccc2)C[C@@H](C)C(=O)/C=C/C(C)=C/[C@@H]1CO[C@H]1O[C@@H](C)[C@H](O)[C@H](OC)[C@@H]1OC` (mixture of isomers): the inhibition of growth at 0.1 µM in the assay with Aliivibrio fischeri [1] worked out at 11%. In addition, the inhibition of growth at 1 µM with Aliivibrio fischeri [2] amounted to 20%.
For `CCCCNC(=O)C(C[C@H]1C[C@@H](C)C(=O)/C=C/C(C)=C/[C@H](CO[C@H]2O[C@@H](C)[C@H](O)[C@H](OC)[C@@H]2OC)[C@@H](CC)OC(=O)C[C@@H](O)[C@H](C)[C@H]1O[C@@H]1O[C@H](C)[C@@H](O)[C@H](N(C)C)[C@H]1O)N(C(=O)c1ccccc1)C(C)C` (mixture of isomers), in that order: 31% and 57%.
Regarding `CC[C@H]1OC(=O)C[C@@H](O)[C@H](C)[C@@H](O[C@@H]2O[C@H](C)[C@@H](O)[C@H](N(C)C)[C@H]2O)[C@@H](CC(C(=O)NC(C)(C)C)N(CCNC(=O)OC(C)(C)C)C(=O)c2ccccc2)C[C@@H](C)C(=O)/C=C/C(C)=C/[C@@H]1CO[C@H]1O[C@@H](C)[C@H](O)[C@H](OC)[C@@H]1OC` (mixture of isomers), the inhibition of growth at 0.1 µM in the assay with Aliivibrio fischeri [1] turned out to be 34%. The inhibition of growth at 1 µM in the assay with Aliivibrio fischeri [2] was 56%.
Turning to `CCCC(=O)N(C)C(C[C@H]1C[C@@H](C)C(=O)/C=C/C(C)=C/[C@H](CO[C@H]2O[C@@H](C)[C@H](O)[C@H](OC)[C@@H]2OC)[C@@H](CC)OC(=O)C[C@@H](O)[C@H](C)[C@H]1O[C@@H]1O[C@H](C)[C@@H](O)[C@H](N(C)C)[C@H]1O)C(=O)NC(C)(C)C` (mixture of isomers), in the assay on Aliivibrio fischeri [1], the inhibition of growth at 0.1 µM came to 26%. The inhibition of growth at 1 µM with Aliivibrio fischeri [2] is 73%.
Consider `CC[C@H]1OC(=O)C[C@@H](O)[C@H](C)[C@@H](O[C@@H]2O[C@H](C)[C@@H](O)[C@H](N(C)C)[C@H]2O)[C@@H](CC=O)C[C@@H](C)C(=O)/C=C/C(C)=C/[C@@H]1CO[C@H]1O[C@@H](C)[C@H](O)[C@H](OC)[C@@H]1OC`, for which the inhibition of growth at 0.1 µM in the assay on Aliivibrio fischeri [1] came to 57%. For the same molecule, the inhibition of growth at 1 µM in the assay on Aliivibrio fischeri [2] worked out at 84%. The MIC in the assay on Aliivibrio fischeri [3] was 2 to 4 µM (≈ 1.54 to 3.09 µg/mL).
`CC[C@H]1OC(=O)C[C@@H](O)[C@H](C)[C@@H](O[C@@H]2O[C@H](C)[C@@H](O)[C@H](N(C)C)[C@H]2O)[C@@H](C[C@@H](C(=O)NC(C)(C)C)N(C)C(C)=O)C[C@@H](C)C(=O)/C=C/C(C)=C/[C@@H]1CO[C@H]1O[C@@H](C)[C@H](O)[C@H](OC)[C@@H]1OC`: the inhibition of growth at 0.1 µM in the assay on Aliivibrio fischeri [1] stood at 6%. The inhibition of growth at 1 µM with Aliivibrio fischeri [2] came to 11%.
With `CC[C@H]1OC(=O)C[C@@H](O)[C@H](C)[C@@H](O[C@@H]2O[C@H](C)[C@@H](O)[C@H](N(C)C)[C@H]2O)[C@@H](CC(C(=O)NC(C)(C)C)N(C)C(=O)c2ccccc2)C[C@@H](C)C(=O)/C=C/C(C)=C/[C@@H]1CO[C@H]1O[C@@H](C)[C@H](O)[C@H](OC)[C@@H]1OC` (single isomer, unassigned), the MIC in the assay with Aliivibrio fischeri [3] lay in the range of 2 to 4 µM (≈ 1.98 to 3.96 µg/mL).
With `CC[C@H]1OC(=O)C[C@@H](O)[C@H](C)[C@@H](O[C@@H]2O[C@H](C)[C@@H](O)[C@H](N(C)C)[C@H]2O)[C@@H](CC(C(=O)NC(C)(C)C)N(CCCNC(=O)OCc2ccccc2)C(=O)c2ccccc2)C[C@@H](C)C(=O)/C=C/C(C)=C/[C@@H]1CO[C@H]1O[C@@H](C)[C@H](O)[C@H](OC)[C@@H]1OC` (mixture of isomers), in the assay on Aliivibrio fischeri [1], the inhibition of growth at 0.1 µM amounted to 47%. The inhibition of growth at 1 µM in the assay on Aliivibrio fischeri [2] came out at 64%.
